# Species: Rattus norvegicus
# Experiment: DrugMatrix - Regimen: Daily Repeat
# Format: toxicity, organism-based, Sprague-Dawley
# Parameters: regimen Daily Repeat, gender Male, age 6-8 weeks
# Conditions: in vivo, po, route oral GAVAGE, vehicle 100 % WATER; for ABSOLUTE BASOPHIL / ABSOLUTE EOSINOPHIL / ABSOLUTE LYMPHOCYTE / ABSOLUTE MONOCYTE / ABSOLUTE SEGMENTED NEUTROPHIL / BASOPHIL / EOSINOPHIL / ERYTHROCYTE COUNT / HEMATOCRIT / HEMOGLOBIN / LEUKOCYTE COUNT / LYMPHOCYTE / MEAN CORPUSCULAR HEMOGLOBIN / MEAN CORPUSCULAR HEMOGLOBIN CONCENTRATION / MEAN CORPUSCULAR VOLUME / MONOCYTE / NEUTROPHIL / NUCLEATED RED BLOOD CELLS / PLATELET COUNT: tissue Blood; for ALANINE AMINOTRANSFERASE / ALBUMIN / ALKALINE PHOSPHATASE / ASPARTATE AMINOTRANSFERASE / BLOOD UREA NITROGEN / CARBON DIOXIDE / CHLORIDE / CHOLESTEROL / CREATINE PHOSPHOKINASE / CREATININE / GLUCOSE / LACTATE DEHYDROGENASE / LIPASE / PHOSPHORUS / POTASSIUM / SODIUM / TOTAL BILIRUBIN / TOTAL PROTEIN / URIC ACID: tissue Plasma
# [1] = 100 mg/kg, 120 h, dose level Low, time 5 day
# [2] = 852 mg/kg, 72 h, dose level High, time 3 day
# [3] = 852 mg/kg, 120 h, dose level High, time 5 day
smiles,measurement,setting,value
CC(C)(S)[C@@H](N)C(=O)O [PENICILLAMINE],ABSOLUTE BASOPHIL,[1],0 CELLS/uL
same,ABSOLUTE EOSINOPHIL,[1],0 CELLS/uL
same,ABSOLUTE LYMPHOCYTE,[1],6617.67 CELLS/uL
same,ABSOLUTE MONOCYTE,[1],110.33 CELLS/uL
same,ABSOLUTE SEGMENTED NEUTROPHIL,[1],338.67 CELLS/uL
same,BASOPHIL,[1],0%
same,EOSINOPHIL,[1],0%
same,ERYTHROCYTE COUNT,[1],5.47 x10E6/uL
same,HEMATOCRIT,[1],34.93%
same,HEMOGLOBIN,[1],13.8 G/DL
same,LEUKOCYTE COUNT,[1],7.07 x10E3/uL
same,LYMPHOCYTE,[1],93.33%
same,MEAN CORPUSCULAR HEMOGLOBIN,[1],25.27 pg
same,MEAN CORPUSCULAR HEMOGLOBIN CONCENTRATION,[1],39.57 G/DL
same,MEAN CORPUSCULAR VOLUME,[1],63.93 fL
same,MONOCYTE,[1],1.67%
same,NEUTROPHIL,[1],5%
same,NUCLEATED RED BLOOD CELLS,[1],0 /100WBC
same,PLATELET COUNT,[1],1075.33 x10E3/uL
same,ALANINE AMINOTRANSFERASE,[1],51.33 u/L
same,ALBUMIN,[1],4.07 G/DL
same,ALKALINE PHOSPHATASE,[1],310.33 u/L
same,ASPARTATE AMINOTRANSFERASE,[1],74.33 u/L
same,BLOOD UREA NITROGEN,[1],13.67 mg/dL
same,CARBON DIOXIDE,[1],34 mmol/L
same,CHLORIDE,[1],99.67 MEQ/L
same,CHOLESTEROL,[1],68.67 mg/dL
same,CREATINE PHOSPHOKINASE,[1],197.67 u/L
same,CREATININE,[1],0.13 mg/dL
same,GLUCOSE,[1],152.67 mg/dL
same,LACTATE DEHYDROGENASE,[1],129 u/L
same,LIPASE,[1],9.67 u/L
same,PHOSPHORUS,[1],10.77 mg/dL
same,POTASSIUM,[1],6.13 MEQ/L
same,SODIUM,[1],144.33 MEQ/L
same,TOTAL BILIRUBIN,[1],0.17 mg/dL
same,TOTAL PROTEIN,[1],5.83 G/DL
same,URIC ACID,[1],1.17 mg/dL
same,ABSOLUTE BASOPHIL,[2],0 CELLS/uL
same,ABSOLUTE EOSINOPHIL,[2],0 CELLS/uL
same,ABSOLUTE LYMPHOCYTE,[2],6326 CELLS/uL
same,ABSOLUTE MONOCYTE,[2],89.33 CELLS/uL
same,ABSOLUTE SEGMENTED NEUTROPHIL,[2],351.33 CELLS/uL
same,BASOPHIL,[2],0%
same,EOSINOPHIL,[2],0%
same,ERYTHROCYTE COUNT,[2],5.64 x10E6/uL
same,HEMATOCRIT,[2],34.8%
same,HEMOGLOBIN,[2],13.1 G/DL
same,LEUKOCYTE COUNT,[2],6.77 x10E3/uL
same,LYMPHOCYTE,[2],93.67%
same,MEAN CORPUSCULAR HEMOGLOBIN,[2],23.23 pg
same,MEAN CORPUSCULAR HEMOGLOBIN CONCENTRATION,[2],37.67 G/DL
same,MEAN CORPUSCULAR VOLUME,[2],61.73 fL
same,MONOCYTE,[2],1.33%
same,NEUTROPHIL,[2],5%
same,NUCLEATED RED BLOOD CELLS,[2],0 /100WBC
same,PLATELET COUNT,[2],1143.33 x10E3/uL
same,ALANINE AMINOTRANSFERASE,[2],54.33 u/L
same,ALBUMIN,[2],4.2 G/DL
same,ALKALINE PHOSPHATASE,[2],349 u/L
same,ASPARTATE AMINOTRANSFERASE,[2],71.33 u/L
same,BLOOD UREA NITROGEN,[2],14 mg/dL
same,CARBON DIOXIDE,[2],30.33 mmol/L
same,CHLORIDE,[2],102.67 MEQ/L
same,CHOLESTEROL,[2],88.33 mg/dL
same,CREATINE PHOSPHOKINASE,[2],242 u/L
same,CREATININE,[2],0.12 mg/dL
same,GLUCOSE,[2],145.67 mg/dL
same,LACTATE DEHYDROGENASE,[2],117.67 u/L
same,LIPASE,[2],10 u/L
same,PHOSPHORUS,[2],9.27 mg/dL
same,POTASSIUM,[2],5.88 MEQ/L
same,SODIUM,[2],147.53 MEQ/L
same,TOTAL BILIRUBIN,[2],0.17 mg/dL
same,TOTAL PROTEIN,[2],6.2 G/DL
same,URIC ACID,[2],0.87 mg/dL
same,ABSOLUTE BASOPHIL,[3],0 CELLS/uL
same,ABSOLUTE EOSINOPHIL,[3],0 CELLS/uL
same,ABSOLUTE LYMPHOCYTE,[3],6605.67 CELLS/uL
same,ABSOLUTE MONOCYTE,[3],23.67 CELLS/uL
same,ABSOLUTE SEGMENTED NEUTROPHIL,[3],604 CELLS/uL
same,BASOPHIL,[3],0%
same,EOSINOPHIL,[3],0%
same,ERYTHROCYTE COUNT,[3],5.48 x10E6/uL
same,HEMATOCRIT,[3],33.73%
same,HEMOGLOBIN,[3],13.27 G/DL
same,LEUKOCYTE COUNT,[3],7.23 x10E3/uL
same,LYMPHOCYTE,[3],91.33%
same,MEAN CORPUSCULAR HEMOGLOBIN,[3],24.23 pg
same,MEAN CORPUSCULAR HEMOGLOBIN CONCENTRATION,[3],39.33 G/DL
same,MEAN CORPUSCULAR VOLUME,[3],61.63 fL
same,MONOCYTE,[3],0.33%
same,NEUTROPHIL,[3],8.33%
same,NUCLEATED RED BLOOD CELLS,[3],0 /100WBC
same,PLATELET COUNT,[3],1213.67 x10E3/uL
same,ALANINE AMINOTRANSFERASE,[3],35 u/L
same,ALBUMIN,[3],4.23 G/DL
same,ALKALINE PHOSPHATASE,[3],283.33 u/L
same,ASPARTATE AMINOTRANSFERASE,[3],59.33 u/L
same,BLOOD UREA NITROGEN,[3],13.33 mg/dL
same,CARBON DIOXIDE,[3],33.33 mmol/L
same,CHLORIDE,[3],99.67 MEQ/L
same,CHOLESTEROL,[3],61.33 mg/dL
same,CREATINE PHOSPHOKINASE,[3],202.33 u/L
same,CREATININE,[3],0.12 mg/dL
same,GLUCOSE,[3],131.67 mg/dL
same,LACTATE DEHYDROGENASE,[3],133 u/L
same,LIPASE,[3],9.67 u/L
same,PHOSPHORUS,[3],10.7 mg/dL
same,POTASSIUM,[3],6.12 MEQ/L
same,SODIUM,[3],144.2 MEQ/L
same,TOTAL BILIRUBIN,[3],0.2 mg/dL
same,TOTAL PROTEIN,[3],6.07 G/DL
same,URIC ACID,[3],1.23 mg/dL

# From ChEMBL document CHEMBL3885881, “DrugMatrix”
